Legend:
[1] = target: T1, ApmA (Staphylococcus aureus, UniProt A0A1D0AST6); experiment: X-ray crystallography ([…] A); type: binding; settings: acetyl donor; crystals: 0.1 M citric acid pH 3.6, 30% PEG 200, 5 mM apramycin, 2 mM acetyl-CoA
T1 construct: full length, residues 1-274 described; synthetic gene in pET19b-TEV, E. coli BL21(DE3) host; N-terminal His10 tag cut by TEV for crystals; SeMet form also made; trimer

[2] = target: T1, ApmA; experiment: X-ray crystallography ([…] A); acetylation product shown by HR-ESI-MS and NMR; type: binding; settings: crystals: 0.2 M CaCl (so in the source), 20% PEG 3350, 5 mM apramycin; turnover: 500 uM acetyl-CoA, pH 7.5, room temperature; acetylated at 2'-NH2; PDB id printed as 7J6M2 (typo for 7JM2)

T1 sequence (A0A1D0AST6 entry or part of it): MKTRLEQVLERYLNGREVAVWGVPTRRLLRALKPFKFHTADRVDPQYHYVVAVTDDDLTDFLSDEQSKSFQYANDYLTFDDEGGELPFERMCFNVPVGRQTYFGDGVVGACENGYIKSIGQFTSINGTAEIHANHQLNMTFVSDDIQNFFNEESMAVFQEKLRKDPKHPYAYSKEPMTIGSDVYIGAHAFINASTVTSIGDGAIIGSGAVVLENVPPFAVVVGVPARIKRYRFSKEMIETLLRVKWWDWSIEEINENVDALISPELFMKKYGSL

SMILES | X-ray crystallography (2.30 A) [1] | X-ray crystallography (1.85 A); acetylation product shown by HR-ESI-MS and NMR [2]
CC(=O)SCCNC(=O)CCNC(=O)[C@H](O)C(C)(C)COP(=O)(O)OP(=O)(O)OC[C@H]1O[C@@H](n2cnc3c(N)ncnc32)[C@H](O)[C@@H]1OP(=O)(O)O [acetyl-CoA] | 7JM1 (ApmA complex with acetyl-CoA) | –
CN[C@@H]1[C@@H](O[C@H]2O[C@H](CO)[C@@H](N)[C@H](O)[C@H]2O)O[C@H]2C[C@@H](N)[C@@H](O[C@H]3[C@H](O)[C@@H](O)[C@H](N)C[C@@H]3N)O[C@@H]2[C@@H]1O [apramycin] | – | Crystals of the apoenzyme and ApmA in complex with apramycin or acetyl-CoA were obtained

— PMC7885111, “ApmA Is a Unique Aminoglycoside Antibiotic Acetyltransferase That Inactivates Apramycin” (mBio, 2021)
